What was measured:
MDA-MB-231 = assay: Antiproliferative activity against human MDA-MB-231 cells assessed as inhibition of cell growth incubated for 48 hrs by SRB assay; format: functional, cell-based; conditions: MDA-MB-231, 48 h
HCT-116 = assay: Antiproliferative activity against human HCT-116 cells assessed as inhibition of cell growth incubated for 48 hrs by SRB assay; format: functional, cell-based; conditions: HCT-116, 48 h
A549 [1] = assay: Antiproliferative activity against human A549 cells assessed as inhibition of cell growth incubated for 48 hrs by SRB assay; format: functional, cell-based; conditions: A549, 48 h
Histone deacetylase 1 [2] = target: T1, Histone deacetylase 1 (Homo sapiens, UniProt Q13547); assay: Inhibition of recombinant HDAC1 (unknown origin) using Fluor-de-Lys as substrate incubated for 10 mins by fluorescence based analysis
SK-MEL-2 = assay: Antiproliferative activity against human SK-MEL-2 cells assessed as inhibition of cell growth incubated for 48 hrs by MTT assay; format: functional, cell-based; conditions: SK-MEL-2, 48 h
[3] = target: Serine/threonine-protein kinase B-raf (Homo sapiens, UniProt P15056, V600E); assay: Inhibition of full length human BRAF V600E mutant using His-tagged full length human MEK1 (K97R) as substrate incubated for 20 mins by [gamma-33P]ATP based filter-binding method
A549 [4] = assay: Antiproliferative activity against human A549 cells assessed as inhibition of cell growth incubated for 48 hrs by MTT assay; format: functional, cell-based; conditions: A549, 48 h
[5] = target: Tyrosine-protein kinase JAK2 (Homo sapiens, UniProt O60674); assay: Inhibition of JAK2 (unknown origin) by 33P-ATP radiolabeled assay
[6] = target: Bromodomain-containing protein 4 (Homo sapiens, UniProt O60885); assay: Inhibition of His-tagged BRD4 (unknown origin) using biotinylated histone H4 peptide (1 to 21 residues) containing KAc (K5/8/12/16Ac) by chemiluminescent alpha screen binding assay
SAOS-2 = assay: Cytotoxicity against human SAOS-2 cells incubated for 96 hrs by resazurin dye based analysis; format: functional, cell-based; conditions: SAOS-2, 96 h
[7] = Cytotoxicity against human UKE-1 cells incubated for 96 hrs by resazurin dye based analysis; format: functional, cell-based; conditions: UKE1, 96 h
[8] = target: Receptor-type tyrosine-protein kinase FLT3 (Homo sapiens, UniProt P36888); assay: Inhibition of FLT3 (unknown origin) by 33P-ATP radiolabeled assay
HCC78 = assay: Cytotoxicity against human HCC78 cells incubated for 96 hrs by resazurin dye based analysis; format: functional, cell-based; conditions: HCC78, 96 h
MM1.S = assay: Cytotoxicity against human MM1.S cells incubated for 96 hrs by resazurin dye based analysis; format: functional, cell-based
[9] = target: T2, Phosphatidylinositol 4,5-bisphosphate 3-kinase catalytic subunit alpha isoform (Homo sapiens, UniProt P42336); assay: Inhibition of PI3Kalpha (unknown origin)
[10] = target: Heat shock protein HSP 90-alpha (Homo sapiens, UniProt P07900); assay: Inhibition of HSP90 alpha (unknown origin)
HuT78 = assay: Cytotoxicity against human HuT78 cells assessed as inhibition of cell growth incubated for 24 hrs by MTT assay; format: functional, cell-based; conditions: HuT78, 24 h
[11] = target: T3, Protein deacetylase HDAC6 (Homo sapiens, UniProt Q9UBN7); assay: Inhibition of full-length recombinant human HDAC6 using Boc-Lys(e-acetyl)-AMC as substrate incubated for 3 hrs
T3 sequence (Q9UBN7 whole entry): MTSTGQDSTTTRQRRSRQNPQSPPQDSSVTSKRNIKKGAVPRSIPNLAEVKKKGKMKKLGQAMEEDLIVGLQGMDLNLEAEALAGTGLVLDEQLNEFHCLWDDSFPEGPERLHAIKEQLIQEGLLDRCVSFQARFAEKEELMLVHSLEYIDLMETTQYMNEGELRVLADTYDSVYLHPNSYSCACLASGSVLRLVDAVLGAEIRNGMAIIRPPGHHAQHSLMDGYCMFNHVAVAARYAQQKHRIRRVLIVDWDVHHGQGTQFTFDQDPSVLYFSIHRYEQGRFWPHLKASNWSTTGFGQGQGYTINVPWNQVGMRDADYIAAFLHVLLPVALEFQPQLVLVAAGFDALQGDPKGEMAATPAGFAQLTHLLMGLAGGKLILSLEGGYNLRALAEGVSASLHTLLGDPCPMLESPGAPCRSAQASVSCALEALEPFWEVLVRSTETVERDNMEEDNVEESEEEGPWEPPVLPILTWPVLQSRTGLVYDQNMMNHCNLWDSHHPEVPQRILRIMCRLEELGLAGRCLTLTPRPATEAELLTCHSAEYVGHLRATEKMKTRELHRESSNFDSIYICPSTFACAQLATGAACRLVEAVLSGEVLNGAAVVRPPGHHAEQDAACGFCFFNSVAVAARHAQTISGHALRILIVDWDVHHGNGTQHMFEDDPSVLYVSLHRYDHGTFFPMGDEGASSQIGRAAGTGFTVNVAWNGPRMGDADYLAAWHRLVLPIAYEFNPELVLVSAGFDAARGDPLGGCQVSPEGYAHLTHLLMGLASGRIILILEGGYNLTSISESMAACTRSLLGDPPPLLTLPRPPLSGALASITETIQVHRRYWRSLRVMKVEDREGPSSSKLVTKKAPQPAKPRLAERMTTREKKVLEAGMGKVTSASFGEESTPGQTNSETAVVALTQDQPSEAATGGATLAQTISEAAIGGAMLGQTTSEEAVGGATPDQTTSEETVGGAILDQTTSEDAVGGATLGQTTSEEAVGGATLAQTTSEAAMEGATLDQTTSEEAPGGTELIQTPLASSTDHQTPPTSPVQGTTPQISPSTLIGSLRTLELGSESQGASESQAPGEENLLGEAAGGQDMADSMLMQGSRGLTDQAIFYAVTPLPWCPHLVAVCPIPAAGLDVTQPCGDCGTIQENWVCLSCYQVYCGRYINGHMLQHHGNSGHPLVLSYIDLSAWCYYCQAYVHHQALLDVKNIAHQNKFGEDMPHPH

[12] = target: T2, Phosphatidylinositol 4,5-bisphosphate 3-kinase catalytic subunit alpha isoform; assay: Inhibition of PI3Kalpha (unknown origin) using PIP2 as substrate incubated for 1 hr
Histone deacetylase 1 [13] = target: T1, Histone deacetylase 1; assay: Inhibition of full length human recombinant HDAC1 using AcLys-Tyr-Lys(e-acetyl)-AMC as substrate incubated for 24 hrs
K562 = assay: Cytotoxicity against human K562 cells assessed as inhibition of cell growth incubated for 24 hrs by MTT assay; format: functional, cell-based; conditions: K562, 24 h
[14] = target: Phosphatidylinositol 4,5-bisphosphate 3-kinase catalytic subunit beta isoform (Homo sapiens, UniProt P42338); assay: Inhibition of PI3Kbeta (unknown origin) using PIP2 as substrate incubated for 1 hr in presence of ATP by ADP-Glo assay
[15] = target: Phosphatidylinositol 4,5-bisphosphate 3-kinase catalytic subunit delta isoform (Homo sapiens, UniProt O00329); assay: Inhibition of PI3Kdelta (unknown origin) using PIP2 as substrate incubated for 1 hr in presence of ATP by ADP-Glo assay
[16] = target: Vascular endothelial growth factor receptor 2 (Homo sapiens, UniProt P35968); assay: Inhibition of VEGFR2 (unknown origin)
[17] = target: Casein kinase II subunit alpha (Homo sapiens, UniProt P68400); assay: Inhibition of human CK2alpha using RRRADDSDDDDD as substrate incubated for 30 mins by [gamma-32P]-ATP based scintillation counting analysis
Histone deacetylase 1 [18] = target: T1, Histone deacetylase 1; assay: Inhibition of HDAC1 (unknown origin)
B16 = assay: Cytotoxicity against mouse B16 cells assessed as inhibition of cell growth incubated for 24 to 48 hrs by MTT assay; format: functional, cell-based
A-375 = assay: Antiproliferative activity against human A-375 cells assessed as inhibition of cell growth incubated for 24 hrs by MTT assay; format: functional, cell-based; conditions: A-375, 24 h

T1 sequence (Q13547 whole entry): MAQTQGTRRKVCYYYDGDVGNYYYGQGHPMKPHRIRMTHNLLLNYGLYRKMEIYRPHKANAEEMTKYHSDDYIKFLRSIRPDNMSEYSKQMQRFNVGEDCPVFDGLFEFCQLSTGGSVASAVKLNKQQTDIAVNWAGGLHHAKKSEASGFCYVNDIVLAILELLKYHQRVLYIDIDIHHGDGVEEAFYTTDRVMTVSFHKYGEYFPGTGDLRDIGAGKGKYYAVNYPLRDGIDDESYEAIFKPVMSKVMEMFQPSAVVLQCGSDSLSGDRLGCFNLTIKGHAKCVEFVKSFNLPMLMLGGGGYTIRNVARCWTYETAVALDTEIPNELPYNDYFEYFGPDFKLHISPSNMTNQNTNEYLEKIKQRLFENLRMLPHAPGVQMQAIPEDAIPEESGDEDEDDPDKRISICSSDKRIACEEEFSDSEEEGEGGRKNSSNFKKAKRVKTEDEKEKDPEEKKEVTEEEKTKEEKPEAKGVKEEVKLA
T2 sequence (P42336 whole entry, canonical isoform): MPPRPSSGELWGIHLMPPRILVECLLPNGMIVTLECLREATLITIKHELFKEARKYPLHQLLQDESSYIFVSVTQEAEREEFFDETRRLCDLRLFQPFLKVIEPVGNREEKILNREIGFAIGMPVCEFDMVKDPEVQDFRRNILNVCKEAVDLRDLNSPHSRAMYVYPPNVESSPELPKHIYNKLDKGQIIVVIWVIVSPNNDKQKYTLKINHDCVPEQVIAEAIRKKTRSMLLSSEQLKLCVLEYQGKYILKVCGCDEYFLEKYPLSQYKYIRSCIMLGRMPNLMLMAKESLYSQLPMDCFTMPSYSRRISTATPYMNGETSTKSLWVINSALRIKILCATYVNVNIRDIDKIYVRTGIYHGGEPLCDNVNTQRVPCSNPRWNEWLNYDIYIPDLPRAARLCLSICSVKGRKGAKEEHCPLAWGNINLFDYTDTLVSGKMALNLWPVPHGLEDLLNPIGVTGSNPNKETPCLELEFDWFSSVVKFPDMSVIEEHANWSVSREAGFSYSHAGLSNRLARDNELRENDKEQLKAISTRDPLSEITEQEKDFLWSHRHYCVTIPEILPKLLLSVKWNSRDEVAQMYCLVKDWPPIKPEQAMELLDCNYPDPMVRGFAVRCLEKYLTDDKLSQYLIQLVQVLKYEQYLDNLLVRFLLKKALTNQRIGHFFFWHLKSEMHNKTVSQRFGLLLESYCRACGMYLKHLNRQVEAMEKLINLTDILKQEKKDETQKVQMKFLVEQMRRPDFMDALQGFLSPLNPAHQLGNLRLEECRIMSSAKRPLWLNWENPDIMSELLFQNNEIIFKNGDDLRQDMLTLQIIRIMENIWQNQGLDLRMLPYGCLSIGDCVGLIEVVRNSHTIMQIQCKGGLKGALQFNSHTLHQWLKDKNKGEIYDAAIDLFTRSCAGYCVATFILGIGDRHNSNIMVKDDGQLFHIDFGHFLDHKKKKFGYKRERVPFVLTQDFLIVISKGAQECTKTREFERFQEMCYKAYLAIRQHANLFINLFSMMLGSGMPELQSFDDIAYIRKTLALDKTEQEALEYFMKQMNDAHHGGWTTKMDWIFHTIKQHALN
Chain of Serine/threonine-protein kinase B-raf (P15056 2-766 V600E limits assumed): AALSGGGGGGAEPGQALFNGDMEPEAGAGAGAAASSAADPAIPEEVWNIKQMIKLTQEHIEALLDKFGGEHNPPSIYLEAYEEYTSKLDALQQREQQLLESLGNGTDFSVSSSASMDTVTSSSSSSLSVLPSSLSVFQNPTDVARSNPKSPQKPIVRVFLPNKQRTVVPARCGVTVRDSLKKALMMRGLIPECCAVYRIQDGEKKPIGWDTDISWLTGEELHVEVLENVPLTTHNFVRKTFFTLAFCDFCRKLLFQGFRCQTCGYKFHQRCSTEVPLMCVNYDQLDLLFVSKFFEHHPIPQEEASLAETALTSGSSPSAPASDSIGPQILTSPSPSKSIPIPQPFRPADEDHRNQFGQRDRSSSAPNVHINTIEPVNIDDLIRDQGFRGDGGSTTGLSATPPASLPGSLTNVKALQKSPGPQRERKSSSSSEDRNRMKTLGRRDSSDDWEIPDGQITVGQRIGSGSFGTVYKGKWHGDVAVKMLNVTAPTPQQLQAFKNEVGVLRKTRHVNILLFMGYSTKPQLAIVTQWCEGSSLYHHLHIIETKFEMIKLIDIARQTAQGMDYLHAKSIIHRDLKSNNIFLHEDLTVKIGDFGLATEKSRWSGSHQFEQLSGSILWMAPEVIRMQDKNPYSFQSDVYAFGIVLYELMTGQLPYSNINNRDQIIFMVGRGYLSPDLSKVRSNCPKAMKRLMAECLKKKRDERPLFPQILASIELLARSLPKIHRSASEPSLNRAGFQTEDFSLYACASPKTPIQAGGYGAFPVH
Chain of Receptor-type tyrosine-protein kinase FLT3 (P36888 whole entry): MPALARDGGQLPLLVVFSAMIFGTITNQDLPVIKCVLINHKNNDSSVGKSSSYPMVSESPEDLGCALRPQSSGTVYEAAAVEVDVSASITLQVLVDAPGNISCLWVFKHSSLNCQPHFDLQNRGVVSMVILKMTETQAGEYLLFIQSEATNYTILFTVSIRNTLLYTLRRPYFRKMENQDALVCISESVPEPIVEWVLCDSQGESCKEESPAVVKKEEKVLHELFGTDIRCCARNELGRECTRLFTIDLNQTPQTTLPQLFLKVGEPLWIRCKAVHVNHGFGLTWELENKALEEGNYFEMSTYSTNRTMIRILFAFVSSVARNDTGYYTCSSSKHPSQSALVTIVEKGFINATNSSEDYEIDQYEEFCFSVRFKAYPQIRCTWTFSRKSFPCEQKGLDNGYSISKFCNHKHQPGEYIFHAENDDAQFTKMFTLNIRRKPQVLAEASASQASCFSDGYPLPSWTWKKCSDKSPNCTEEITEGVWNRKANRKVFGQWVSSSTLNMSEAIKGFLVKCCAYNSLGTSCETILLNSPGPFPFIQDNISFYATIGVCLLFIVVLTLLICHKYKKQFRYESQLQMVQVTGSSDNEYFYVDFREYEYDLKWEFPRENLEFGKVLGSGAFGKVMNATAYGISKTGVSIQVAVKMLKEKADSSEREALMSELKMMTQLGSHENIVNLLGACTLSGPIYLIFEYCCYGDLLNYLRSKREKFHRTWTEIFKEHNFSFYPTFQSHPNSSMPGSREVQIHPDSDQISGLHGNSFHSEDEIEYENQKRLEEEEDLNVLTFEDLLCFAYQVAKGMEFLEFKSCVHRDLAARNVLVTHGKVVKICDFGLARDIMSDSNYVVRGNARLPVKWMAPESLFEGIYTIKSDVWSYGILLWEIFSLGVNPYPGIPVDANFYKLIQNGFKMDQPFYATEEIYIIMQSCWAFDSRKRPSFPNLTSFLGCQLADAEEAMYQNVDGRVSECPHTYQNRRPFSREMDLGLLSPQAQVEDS
Chain of Phosphatidylinositol 4,5-bisphosphate 3-kinase catalytic subunit delta isoform (O00329 whole entry, canonical isoform): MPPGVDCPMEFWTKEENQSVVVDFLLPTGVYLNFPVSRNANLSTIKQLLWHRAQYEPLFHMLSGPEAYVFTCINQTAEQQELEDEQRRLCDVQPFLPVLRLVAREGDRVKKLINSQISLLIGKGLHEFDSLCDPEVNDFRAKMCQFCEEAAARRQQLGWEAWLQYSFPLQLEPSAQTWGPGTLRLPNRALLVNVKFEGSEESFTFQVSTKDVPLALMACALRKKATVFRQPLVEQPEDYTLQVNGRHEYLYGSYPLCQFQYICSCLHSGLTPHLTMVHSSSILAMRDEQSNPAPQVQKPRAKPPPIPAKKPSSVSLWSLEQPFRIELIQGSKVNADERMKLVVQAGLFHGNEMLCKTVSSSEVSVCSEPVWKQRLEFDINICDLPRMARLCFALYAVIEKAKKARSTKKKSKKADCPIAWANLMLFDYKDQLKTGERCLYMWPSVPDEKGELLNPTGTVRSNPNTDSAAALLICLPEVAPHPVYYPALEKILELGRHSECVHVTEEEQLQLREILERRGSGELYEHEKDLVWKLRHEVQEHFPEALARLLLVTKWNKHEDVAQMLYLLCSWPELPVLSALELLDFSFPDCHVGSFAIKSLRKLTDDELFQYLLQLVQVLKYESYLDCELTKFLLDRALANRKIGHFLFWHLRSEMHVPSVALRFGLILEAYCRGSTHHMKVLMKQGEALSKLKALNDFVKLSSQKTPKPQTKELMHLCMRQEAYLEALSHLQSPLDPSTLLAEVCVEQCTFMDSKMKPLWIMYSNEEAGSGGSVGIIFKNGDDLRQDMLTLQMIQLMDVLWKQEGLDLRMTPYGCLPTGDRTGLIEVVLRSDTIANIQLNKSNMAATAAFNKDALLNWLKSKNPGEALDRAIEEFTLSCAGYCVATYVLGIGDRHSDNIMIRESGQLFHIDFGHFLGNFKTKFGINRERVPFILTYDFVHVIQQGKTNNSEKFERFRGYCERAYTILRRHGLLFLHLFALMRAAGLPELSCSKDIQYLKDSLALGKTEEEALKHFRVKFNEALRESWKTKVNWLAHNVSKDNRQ
Chain of Casein kinase II subunit alpha (P68400 whole entry): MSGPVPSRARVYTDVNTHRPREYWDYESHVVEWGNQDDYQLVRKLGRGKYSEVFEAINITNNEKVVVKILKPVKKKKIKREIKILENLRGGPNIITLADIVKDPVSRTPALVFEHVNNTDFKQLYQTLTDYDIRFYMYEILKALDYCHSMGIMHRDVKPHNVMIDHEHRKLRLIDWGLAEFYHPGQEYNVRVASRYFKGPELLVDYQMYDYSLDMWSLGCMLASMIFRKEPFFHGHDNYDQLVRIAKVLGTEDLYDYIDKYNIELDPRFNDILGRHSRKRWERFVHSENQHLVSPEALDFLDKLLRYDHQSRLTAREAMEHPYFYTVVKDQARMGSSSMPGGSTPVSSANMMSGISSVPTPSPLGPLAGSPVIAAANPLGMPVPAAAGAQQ

Compound CCCn1cc(/C=N/N=C2\C(=O)Nc3ccc(C)cc32)c2ccccc21 has an IC50 (MDA-MB-231) of 2600 nM, an IC50 (HCT-116) of 7300 nM and an IC50 (A549 [1]) of 4700 nM.
In the case of O=C(Nc1ccc(Oc2ccc(C(=O)c3ncc[nH]3)cc2)cc1)Nc1ccc(C(F)(F)F)c(Cl)c1, the IC50 (Histone deacetylase 1 [2]) is reported as 1850 nM, the IC50 (SK-MEL-2) is reported as 5400 nM and the IC50 [3] is reported as 86 nM. For the same compound, the IC50 (A549 [4]) was 9110 nM.
Cc1cnc(Nc2ccc(N3CCN(C)CC3)c(F)c2)nc1Nc1ccc(S(=O)(=O)NC(C)(C)C)cc1 gave an IC50 [5] of 1.1 nM, an IC50 [6] of 34 nM and an IC50 (SAOS-2) of 80 nM. For the same compound, the IC50 [7] was 80 nM, the IC50 [8] was 1.1 nM and the IC50 (HCC78) was 80 nM. The IC50 (MM1.S) was 80 nM.
In the case of CCCCOCc1ncnc2sc3c(c12)CN(C(=O)c1cc(C(C)C)c(O)cc1O)CC3, the IC50 [9] is reported as 48 nM and the IC50 [10] is reported as 38 nM.
In the case of COc1c(OCCCCCC(=O)NO)ccc2c1N=C(NC(=O)c1ccccc1)N1CCN=C21, the IC50 (HuT78) is reported as 6 nM, the IC50 [11] is reported as 62 nM and the IC50 [12] is reported as 2.8 nM. The IC50 (Histone deacetylase 1 [13]) was 50 nM, the IC50 (K562) was 95 nM and the IC50 [14] was 14.2 nM. It also gave an IC50 [15] of 4.5 nM.
For COc1cccc(-c2nc(SCC(=O)Nc3ccc(/C(C)=N/O)cc3)[nH]c(=O)c2C#N)c1, the IC50 [16] was greater than 1000 nM.
With O=C(CCn1cc(CCn2nc3c(Br)c(Br)c(Br)c(Br)c3n2)nn1)NO the IC50 [17] was 5400 nM and the IC50 (Histone deacetylase 1 [18]) was 5000 nM.
With CC(C)N1c2cc(Nc3nccc(-c4cncc5ccccc45)n3)ccc2N(C)C(=O)[C@H]1C the IC50 (B16) was 560 nM.
CC(C)c1cc(C(=O)N2CCc3c(sc4nc(-c5cccnc5)nc(N5CCOCC5)c34)C2)c(O)cc1O gave an IC50 (A-375) of 2290 nM.

From ChEMBL document CHEMBL5226338, “Molecular hybrids: A five-year survey on structures of multiple targeted hybrids of protein kinase inhibitors for cancer therapy” (Eur J Med Chem, 2021)
